Results published in US10730883B2 (AbbVie Inc., priority 2015, dated 2020).
“Also recorded” adds a separate entry of the source.

Experiments:
Type in all cases: physicochemical
[1] = Hygroscopicity / moisture sorption isotherm of solid state forms; settings: general statement on the solid state form
Excerpt: FIG. 6A is a moisture sorption isotherm corresponding to the Amorphous Freebase (via dehydration).
FIG. 6C is a moisture sorption isotherm corresponding to the Tartrate Hydrate.
FIG. 6D is a moisture sorption isotherm corresponding to the Freebase Anhydrate Form D.
In one embodiment, the Tartrate Hydrate has a moisture sorption isotherm profile showing a weight gain of about 1% to about 2% when relative humidity is increased from about 10% relative humidity to about 90% relative humidity at a temperature of 25° C.

[2] = Chemical stability of solid state forms in closed vials at controlled temperature and relative humidity
Protocol: (§1) The Amorphous Freebase, however, is hygroscopic and can comprise as much as 12% by weight water at 25° C./90% relative humidity. Environmental controls potentially are required to ensure appropriate control of potency and water content during storage, dispensing, and handling of the Amorphous Freebase.
(§2) The Tartrate Hydrate, however, potentially will convert to an amorphous tartrate below 10% relative humidity, when heated, or when compressed or under shear.

[3] = Stability of solid state forms to light and peroxide
Protocol: as §1, §2

[4] = Physical stability of solid state forms (dehydration, desolvation, conversion); settings: general statement on the solid state form
Protocol: The Tartrate Hydrate dehydrated into Amorphous at low relative humidity and high temperature, e.g., <10% RH at 25° C. Shearing and compression potentially cause conversion to the amorphous tartrate, and therefore it is not suitable for compressing into tablet form. Additionally, the filter cake solidified during drying, resulting in the need for additional controls during drying.
In addition, Freebase Hydrate Form C can be grown into different particle sizes.
Freebase Anhydrate Form D can be manufactured only when the water content of the crystallization solvent is low, and will convert to Freebase Hydrate Form C in solutions at high water content. The manufacture of Freebase Anhydrate Form D thus requires strict control of water content. Freebase Anhydrate Form D is slow to crystallize, and difficult to manufacture in higher yield. […] Freebase Hydrate Form C will convert to Freebase Anhydrate Form D in a solution of ethyl acetate with low water content.
The resulting amorphous hydrochloride is hygroscopic. Yields obtained for each of the crystalline hydrochlorides generally have been in the 10% to 15% range.

[5] = Moisture sorption isotherm; settings: below 10% relative humidity at 25° C.
Protocol: Moisture vapor isotherm data were collected with a DVS Advantage (Surface Measurement Systems Ltd, Alperton, United Kingdom). The sample powder (5 mg to 20 mg) was loaded on a tared pan of the DVS Advantage. The moisture sorption isotherm data were collected from 30-0-90-0-30% relative humidity in 10% relative humidity intervals. For each step, the dm/dt criteria was 0.001% over 5 minutes, a minimum dm/dt time of 30 minutes, and a maximum dm/dt of 120 minutes. Data was collected isothermally at 25° C. with a nitrogen flow rate of 200 cm^3/minute. The post DVS sample was kept at approximately 30% relative humidity before PXRD analysis.

[6] = Solid state accelerated stability study; settings: for Growth of degradation products: open and closed glass vials
Protocol: Samples (approximately 1 mg to 2 mg) of the solid state form were weighed into glass vials and tested as described below.

[7] = Solubility of solid state forms

In the case of CC[C@@H]1CN(C(=O)NCC(F)(F)F)C[C@@H]1c1cnc2cnc3[nH]ccc3n12.O.O.O.O.O=C(O)C(O)C(O)C(=O)O [Tartrate Hydrate, (3S,4R)-3-ethyl-4-(3H-imidazo[1,2-a]pyrrolo[2,3-e]pyrazin-8-yl)-N-(2,2,2-trifluoroethyl)pyrrolidine-1-carboxamide tartrate tetrahydrate], the hygroscopicity [1] is reported as “not hygroscopic”, the “degradation observed in closed vials” value ([2]; closed vials, 30° C./65% relative humidity and 40° C./75% relative humidity over 12 weeks, 50° C./75% relative humidity over 6 weeks) is reported as “no degradation” and the chemical stability ([2]; general statement on the solid state form) is reported as “acceptable chemical stability”. For the same compound, the “stability to light and peroxide” value [3] was “acceptable stability”, the physical stability [4] was “lack of physical stability” and the “Dehydration in moisture sorption isotherm analysis” value [5] was “dehydrates to an amorphous tartrate”. For the same compound, the “Growth of degradation products” value ([6]; 25° C./60% relative humidity, up to 24 months) was “no growth of degradation products”, the “Growth of degradation products” value ([6]; 40° C./75% relative humidity, at least one month) was “no growth of degradation products” and the “Growth of degradation products” value ([6]; 50° C./75% relative humidity, up to six weeks) was “no growth of degradation products”. The chemical stability ([6]; solid state accelerated stability study) was “acceptable”, the “Change in attributes evaluated (description, crystal form, assay, impurities and water content)” value ([6]; storage conditions of the accelerated stability study) was “No material change” and the BCS class [7] was “Class I”. For the same compound, the Solubility ([7]; Amorphous Freebase: relative to the corresponding crystalline forms) was “high solubility; also recorded: good solubility”.
